Patent US12150942B2, “Cerdulatinib for treating myeloma” (Alexion Pharmaceuticals, Inc., priority 2015, dated 2024)
Entries after “also recorded” stand apart in the source; their conditions may differ.

Tests used:
[1] = tested on: multiple myeloma cell lines (LP1, OPM2, MOLP1, RPMI8226, U266B1, NCIH929); test: Caspase3 activation (apoptosis) in multiple myeloma cell lines; assay type: cell-based; settings: FGFR3 positive and FGFR3 negative MM cell lines; BI-D1870 at 1.2 μM, 2.5 μM, 5 μM
Experimental: (§1) Six multiple myeloma cell lines were tested in this example for the expression level of p90RSK. The cell lines included LP1, OPM2, MOLP1, RPMI8226, U266B1, and NCIH929. Beta-actin was used as control, and the expression levels of FGF receptor 3 (FGFR3), phospho-S380 RSK. and RSK1/RSK2/RSK3 were also measured.
A p90RSK inhibitor, BI-D1870 (see, e.g., Sapkota et al., Biochem J. 2007, 401(Pt 1): 29-38), was added to the medium for each cell line at three difference concentrations. 1.2 μM, 2.5 μM, and 5 μM.
(§2) Cerdulatinib was tested with same cell lines as used in Example 1. […] Also like BI-D1870, there was no relationship between the activity of cerdulatinib and the status of FGFR3.

[2] = tested on: multiple myeloma cell lines (LP1, OPM2, MOLP1, RPMI8226, U266B1, NCIH929); test: Cell proliferation (EdU as indicator) in multiple myeloma cell lines; assay type: cell-based; settings: FGFR3 positive and FGFR3 negative MM cell lines
Experimental: as §1, §2

[3] = tested on: patients with CLL/SLL or B cell NHL; test: Clinical response by standard criteria in dose escalation study; assay type: in vivo, human; settings: 28-day cycles
Experimental: (§3) Methods: This experiment was a 3+3 dose escalation study with 28-day cycles and doses studied ranging from 15 mg to 100 mg QD, and up to 45 mg BID. PK, PD, and safety were monitored. Clinical response was assessed by standard criteria. The level of inhibition of SYK and JAK was determined by multiple whole blood assays measuring signaling via BCR, IL2, IL4, IL6, and GM-CSF. Serum markers of tumor burden-CCL3, CCL4, and other markers of inflammation-B2M, CRP, were also measured.
(§4) Results: As of Jan. 7, 2016, 41 patients (pt) with CLL/SLL or B cell NHL were dosed. Median age was 67 years (range 23-85) and median prior therapies (tx) was 3 (range 1-8). […] The patient with grade 3 AST had tumor progression to the liver. The pancreatitis at 45 mg BID was considered at DLT and the cohort is expanding to approximately 6 patients.

[4] = tested on: serum markers of inflammation (B2M, CRP); test: Serum markers of inflammation in dosed patients; assay type: in vivo, human; settings: once daily 40-100 mg
Experimental: as §3

[5] = tested on: DLBCL, MCL, Burkitt's lymphoma, ALL, MM and AML cells; test: Cytotoxicity (IC50) across cancer types; assay type: cell-based
From the text: The cytotoxicity of cerdulatinib was also compared to Comp A in other types of cancer cells.

[6] = tested on: patients with CLL/SLL or B cell NHL; test: Safety in 3+3 dose escalation study; assay type: in vivo, human
Experimental: as §3, §4

[7] = Pharmacokinetics in 3+3 dose escalation study; assay type: in vivo, human
Experimental: as §3

[8] = tested on: AML (Acute Myeloid Leukemia) cell lines; test: Cytotoxicity in AML cell lines; assay type: cell-based; settings: four different AML cell lines; compared with Ruxolitinib and Comp A
Experimental: The cytotoxicity of cerdulatinib in AML (Acute Myeloid Leukemia) was tested in four different cell lines.

SYK and JAK signaling = test: Whole blood assays of SYK and JAK signaling (BCR, IL2, IL4, IL6, GM-CSF); assay type: in vivo, human; settings: 45 mg BID; steady-state Cmin; peripheral blood assays
Experimental: as §3

Question: With `CC(C)CCN1c2nc(Nc3cc(F)c(O)c(F)c3)ncc2N(C)C(=O)C1C` (stereo not shown) [BI-D1870, reference compound] as the molecule, how does the “activation of Caspase3 expression (indicator of apoptosis)” value [1] read?
Answer: dose-dependently activated the expression of Caspase3

Question: What about the “inhibition of cell proliferation (EdU as indicator)” value [2] of the same molecule?
Answer: dose-dependently inhibited cell proliferation

Question: Which results are given for `CCS(=O)(=O)N1CCN(c2ccc(Nc3ncc(C(N)=O)c(NC4CC4)n3)cc2)CC1` [cerdulatinib, 4-(cyclopropylamino)-2-(4-(4-(ethylsulfonyl)piperazin-1-yl)phenylamino)pyrimidine-5-carboxamide]?
Answer: time at which responses occurred [3]: 2 cycles of tx; activation of Caspase3 expression (indicator of apoptosis) [1]: activated apoptosis; also recorded: dose-dependently activated caspase3 expression; inhibition of serum markers of inflammation [4]: Significant inhibition; IC50 (cytotoxicity) compared to Comp A [5]: more potent than Comp A; tolerability ([6]; 15 mg to 100 mg QD, up to 45 mg BID, 41 patients): well tolerated; treatment emergent AEs of ≥ grade 3 deemed related to study drug ([6]; 30 mg): neutropenia (n=2), anemia (n=1), and pneumocystis pneumonia (grade 5, n=1); treatment emergent AEs of ≥ grade 3 deemed related to study drug ([6]; 45 mg): anemia, AST increase, hypotension, thrombocytopenia (n=1 for each), and fatigue (n=2); treatment emergent AEs of ≥ grade 3 deemed related to study drug ([6]; 45 mg BID, considered DLT): pancreatitis (n=1); treatment emergent AEs of ≥ grade 3 deemed related to study drug ([6]; 50 mg): anemia, neutropenia, abdominal pain, pneumonia, and fatigue (n=1 for each); treatment emergent AEs of ≥ grade 3 deemed related to study drug ([6]; 65 mg): diarrhea and fatigue (n=1 for each); treatment emergent AEs of ≥ grade 3 deemed related to study drug ([6]; 100 mg): nausea (n=1); steady-state Cmin ([7]; 45 mg BID): approximately 1.5 μM; change in systemic exposure ([7]; 45 mg BID relative to previous dose levels): approximate doubling in exposure; also recorded: doubled; average steady state Cmin ([7]; 40-100 mg dose range, once daily): 700 ± 200 nM; Cmax ([7]; human, in vivo, 40-100 mg dose range, once daily, read-out: average steady state Cmax): 1380 nM; half-life ([7]; human, in vivo, patients, once daily dosing): 12 to 16 h; solubility / dissolution ([7]; inferred from plateau of exposure over 40-100 mg): low pH solubility appeared to limit dissolution; inhibition of cell proliferation (EdU as indicator) [2]: dose-dependently inhibited cell proliferation; cytotoxicity in AML cells [8]: more active than Ruxolitinib, a JAK inhibitor, and Comp A; also recorded: active in killing AML cells; inhibition of SYK and JAK (SYK and JAK signaling): complete inhibition
